Active and inactive are the calls of the source. Rule as the data show it, for most assays here: actives have a measured Kd and inactives only a lower limit.
Key:
[1] = molecular target: T1, Cysteine--tRNA ligase, cytoplasmic (Homo sapiens, UniProt P49589)
T1 sequence (P49589 whole entry): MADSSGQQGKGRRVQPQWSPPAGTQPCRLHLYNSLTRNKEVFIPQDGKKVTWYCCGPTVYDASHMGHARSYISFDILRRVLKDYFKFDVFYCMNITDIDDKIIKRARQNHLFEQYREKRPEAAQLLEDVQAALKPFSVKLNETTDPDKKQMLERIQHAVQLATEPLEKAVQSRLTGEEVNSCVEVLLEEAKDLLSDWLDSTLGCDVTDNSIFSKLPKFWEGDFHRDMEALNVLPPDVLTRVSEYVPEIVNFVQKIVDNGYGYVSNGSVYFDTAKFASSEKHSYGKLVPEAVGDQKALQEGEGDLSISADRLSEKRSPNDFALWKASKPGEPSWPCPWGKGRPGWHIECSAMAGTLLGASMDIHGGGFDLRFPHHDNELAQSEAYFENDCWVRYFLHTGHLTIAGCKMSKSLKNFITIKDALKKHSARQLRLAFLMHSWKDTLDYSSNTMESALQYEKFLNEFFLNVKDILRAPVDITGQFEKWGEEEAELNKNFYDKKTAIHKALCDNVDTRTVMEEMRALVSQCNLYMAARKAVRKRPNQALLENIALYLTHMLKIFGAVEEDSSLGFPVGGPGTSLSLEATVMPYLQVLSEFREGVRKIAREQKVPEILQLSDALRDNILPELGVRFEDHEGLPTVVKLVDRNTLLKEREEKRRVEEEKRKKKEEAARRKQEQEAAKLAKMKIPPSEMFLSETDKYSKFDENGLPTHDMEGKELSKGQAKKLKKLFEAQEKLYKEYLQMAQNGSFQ

[2] = molecular target: T2, Serine/threonine-protein kinase Chk1 (Homo sapiens, UniProt O14757)
T2 sequence (O14757 whole entry): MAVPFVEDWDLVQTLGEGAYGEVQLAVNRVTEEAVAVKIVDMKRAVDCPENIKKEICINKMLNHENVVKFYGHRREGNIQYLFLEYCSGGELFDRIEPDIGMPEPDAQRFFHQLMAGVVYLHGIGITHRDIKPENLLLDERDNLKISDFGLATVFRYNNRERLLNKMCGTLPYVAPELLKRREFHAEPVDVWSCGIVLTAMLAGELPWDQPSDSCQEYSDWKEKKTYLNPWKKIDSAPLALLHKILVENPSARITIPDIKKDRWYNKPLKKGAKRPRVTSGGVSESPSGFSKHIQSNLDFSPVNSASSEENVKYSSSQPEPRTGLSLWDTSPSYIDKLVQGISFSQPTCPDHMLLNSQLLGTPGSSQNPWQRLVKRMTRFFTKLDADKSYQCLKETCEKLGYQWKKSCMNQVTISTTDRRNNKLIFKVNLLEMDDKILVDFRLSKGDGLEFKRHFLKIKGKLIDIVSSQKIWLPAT

[3] = molecular target: Eukaryotic translation initiation factor 2-alpha kinase 1 (Homo sapiens, UniProt Q9BQI3)
[4] = molecular target: T3, Mitogen-activated protein kinase 15 (Homo sapiens, UniProt Q8TD08)
T3 sequence (Q8TD08 whole entry): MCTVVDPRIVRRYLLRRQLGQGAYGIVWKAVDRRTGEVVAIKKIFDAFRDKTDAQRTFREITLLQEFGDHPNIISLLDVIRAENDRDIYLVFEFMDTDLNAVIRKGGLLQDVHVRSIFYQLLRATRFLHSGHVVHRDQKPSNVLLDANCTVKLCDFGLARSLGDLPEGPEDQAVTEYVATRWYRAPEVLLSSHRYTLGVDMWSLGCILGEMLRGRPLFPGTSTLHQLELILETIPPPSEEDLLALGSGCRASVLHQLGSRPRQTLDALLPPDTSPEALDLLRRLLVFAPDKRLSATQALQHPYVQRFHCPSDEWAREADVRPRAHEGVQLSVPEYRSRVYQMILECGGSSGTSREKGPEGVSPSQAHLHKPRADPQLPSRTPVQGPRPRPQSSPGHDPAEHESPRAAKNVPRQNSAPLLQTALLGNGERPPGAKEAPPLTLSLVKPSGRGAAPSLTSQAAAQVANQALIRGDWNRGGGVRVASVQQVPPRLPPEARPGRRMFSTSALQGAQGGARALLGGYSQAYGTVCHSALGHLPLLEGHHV

[5] = molecular target: Maternal embryonic leucine zipper kinase (Homo sapiens, UniProt Q14680)
[6] = molecular target: Macrophage-stimulating protein receptor (Homo sapiens, UniProt Q04912)
[7] = molecular target: T4, Ribosyldihydronicotinamide dehydrogenase [quinone] (Homo sapiens, UniProt P16083)
T4 sequence (P16083 whole entry): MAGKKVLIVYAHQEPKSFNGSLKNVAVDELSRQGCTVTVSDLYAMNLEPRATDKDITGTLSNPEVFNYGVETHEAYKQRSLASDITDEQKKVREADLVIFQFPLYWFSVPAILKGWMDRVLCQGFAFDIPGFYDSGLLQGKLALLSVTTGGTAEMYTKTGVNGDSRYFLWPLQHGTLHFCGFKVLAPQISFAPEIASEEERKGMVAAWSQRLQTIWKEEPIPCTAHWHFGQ

[8] = molecular target: Serine/threonine-protein kinase PAK 2 (Homo sapiens, UniProt Q13177)
[9] = molecular target: Serine/threonine-protein kinase N2 (Homo sapiens, UniProt Q16513)
[10] = molecular target: T5, STE20-related kinase adapter protein alpha (Homo sapiens, UniProt Q7RTN6)
T5 sequence (Q7RTN6 whole entry): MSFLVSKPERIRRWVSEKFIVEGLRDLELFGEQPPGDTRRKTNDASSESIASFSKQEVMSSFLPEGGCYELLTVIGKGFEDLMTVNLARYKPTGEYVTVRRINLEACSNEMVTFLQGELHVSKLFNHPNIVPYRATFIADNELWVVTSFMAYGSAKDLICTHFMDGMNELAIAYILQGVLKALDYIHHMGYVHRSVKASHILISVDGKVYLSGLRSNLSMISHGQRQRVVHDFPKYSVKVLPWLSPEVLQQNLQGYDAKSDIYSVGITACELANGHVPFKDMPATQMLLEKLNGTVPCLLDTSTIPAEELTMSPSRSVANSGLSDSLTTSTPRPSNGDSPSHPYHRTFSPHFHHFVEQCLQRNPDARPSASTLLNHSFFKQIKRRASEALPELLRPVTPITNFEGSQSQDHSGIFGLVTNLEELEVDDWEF
Also: in the data inactive means no Kd found up to 30 µM.

Eukaryotic translation initiation factor 2-alpha kinase 1, sequence (Q9BQI3 whole entry): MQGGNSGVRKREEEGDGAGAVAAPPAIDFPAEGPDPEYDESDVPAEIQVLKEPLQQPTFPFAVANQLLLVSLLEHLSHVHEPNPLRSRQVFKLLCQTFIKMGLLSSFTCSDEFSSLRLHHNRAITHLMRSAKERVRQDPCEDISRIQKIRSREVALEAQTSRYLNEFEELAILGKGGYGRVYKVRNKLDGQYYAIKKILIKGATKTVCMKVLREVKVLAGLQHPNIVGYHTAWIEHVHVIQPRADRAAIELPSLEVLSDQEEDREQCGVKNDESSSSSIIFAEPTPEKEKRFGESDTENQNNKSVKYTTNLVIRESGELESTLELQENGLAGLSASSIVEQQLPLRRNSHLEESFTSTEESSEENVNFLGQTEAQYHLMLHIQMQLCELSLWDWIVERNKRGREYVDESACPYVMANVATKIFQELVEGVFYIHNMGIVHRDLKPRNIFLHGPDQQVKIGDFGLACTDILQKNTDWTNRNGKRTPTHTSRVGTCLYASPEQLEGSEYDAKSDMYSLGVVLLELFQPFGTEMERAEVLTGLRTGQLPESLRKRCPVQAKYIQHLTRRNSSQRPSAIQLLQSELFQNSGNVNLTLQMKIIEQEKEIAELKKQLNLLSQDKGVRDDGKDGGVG
Serine/threonine-protein kinase PAK 2, sequence (Q13177 whole entry): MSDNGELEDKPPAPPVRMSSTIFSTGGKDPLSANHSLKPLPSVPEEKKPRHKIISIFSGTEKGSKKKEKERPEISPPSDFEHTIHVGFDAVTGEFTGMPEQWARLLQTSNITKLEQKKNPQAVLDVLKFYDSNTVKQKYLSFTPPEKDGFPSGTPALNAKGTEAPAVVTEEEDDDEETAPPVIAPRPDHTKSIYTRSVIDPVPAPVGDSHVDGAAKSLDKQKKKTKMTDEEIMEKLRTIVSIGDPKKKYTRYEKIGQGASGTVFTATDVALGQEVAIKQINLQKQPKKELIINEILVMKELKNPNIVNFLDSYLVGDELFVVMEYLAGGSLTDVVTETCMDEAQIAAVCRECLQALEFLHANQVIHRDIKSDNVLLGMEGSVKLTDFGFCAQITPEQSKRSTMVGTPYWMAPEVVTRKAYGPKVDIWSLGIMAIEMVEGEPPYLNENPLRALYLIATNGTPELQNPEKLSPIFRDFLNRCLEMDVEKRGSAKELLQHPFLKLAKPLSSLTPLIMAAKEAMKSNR
Serine/threonine-protein kinase N2, sequence (Q16513 whole entry): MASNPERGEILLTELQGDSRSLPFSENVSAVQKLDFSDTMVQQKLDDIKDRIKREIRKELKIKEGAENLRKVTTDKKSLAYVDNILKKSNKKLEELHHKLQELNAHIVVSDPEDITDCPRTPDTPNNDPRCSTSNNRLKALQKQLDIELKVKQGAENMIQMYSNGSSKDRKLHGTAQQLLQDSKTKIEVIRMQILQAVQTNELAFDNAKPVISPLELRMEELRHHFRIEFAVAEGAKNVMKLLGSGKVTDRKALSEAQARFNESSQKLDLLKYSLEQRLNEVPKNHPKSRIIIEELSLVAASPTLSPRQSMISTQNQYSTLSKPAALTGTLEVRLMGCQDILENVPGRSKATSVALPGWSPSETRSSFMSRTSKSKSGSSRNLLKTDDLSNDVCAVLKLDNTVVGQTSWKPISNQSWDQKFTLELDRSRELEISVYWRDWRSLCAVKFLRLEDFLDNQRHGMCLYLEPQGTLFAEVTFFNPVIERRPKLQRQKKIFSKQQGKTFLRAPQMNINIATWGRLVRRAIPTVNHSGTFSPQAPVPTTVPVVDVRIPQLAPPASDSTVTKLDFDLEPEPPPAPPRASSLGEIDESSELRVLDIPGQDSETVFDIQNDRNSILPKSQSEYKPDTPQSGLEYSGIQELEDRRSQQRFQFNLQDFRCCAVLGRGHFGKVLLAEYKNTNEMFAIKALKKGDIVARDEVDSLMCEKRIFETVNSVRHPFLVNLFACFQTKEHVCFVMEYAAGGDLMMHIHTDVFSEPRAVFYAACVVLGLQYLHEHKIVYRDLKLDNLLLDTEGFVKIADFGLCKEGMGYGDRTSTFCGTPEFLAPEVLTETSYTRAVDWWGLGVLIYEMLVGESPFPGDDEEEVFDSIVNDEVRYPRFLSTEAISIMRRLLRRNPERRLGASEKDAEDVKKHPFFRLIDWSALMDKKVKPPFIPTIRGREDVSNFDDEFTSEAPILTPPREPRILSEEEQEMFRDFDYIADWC
Maternal embryonic leucine zipper kinase, sequence (Q14680 whole entry): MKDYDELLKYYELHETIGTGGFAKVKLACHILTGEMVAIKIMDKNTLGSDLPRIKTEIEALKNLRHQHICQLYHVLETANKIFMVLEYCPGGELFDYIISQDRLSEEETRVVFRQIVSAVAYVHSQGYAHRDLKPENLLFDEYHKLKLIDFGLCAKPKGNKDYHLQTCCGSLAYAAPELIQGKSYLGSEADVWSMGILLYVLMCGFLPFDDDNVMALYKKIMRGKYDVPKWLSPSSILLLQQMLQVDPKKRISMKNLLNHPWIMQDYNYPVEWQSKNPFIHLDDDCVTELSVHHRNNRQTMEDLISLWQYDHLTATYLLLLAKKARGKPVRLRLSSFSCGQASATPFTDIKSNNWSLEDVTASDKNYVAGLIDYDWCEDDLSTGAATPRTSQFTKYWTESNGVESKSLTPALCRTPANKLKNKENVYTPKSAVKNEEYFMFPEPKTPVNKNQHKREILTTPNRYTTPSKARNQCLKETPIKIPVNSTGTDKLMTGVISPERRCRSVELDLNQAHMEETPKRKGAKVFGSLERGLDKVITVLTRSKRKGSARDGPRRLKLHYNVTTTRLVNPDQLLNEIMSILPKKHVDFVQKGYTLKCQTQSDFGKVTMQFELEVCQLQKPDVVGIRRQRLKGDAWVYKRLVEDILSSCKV
Macrophage-stimulating protein receptor, sequence (Q04912 25-304 limits assumed): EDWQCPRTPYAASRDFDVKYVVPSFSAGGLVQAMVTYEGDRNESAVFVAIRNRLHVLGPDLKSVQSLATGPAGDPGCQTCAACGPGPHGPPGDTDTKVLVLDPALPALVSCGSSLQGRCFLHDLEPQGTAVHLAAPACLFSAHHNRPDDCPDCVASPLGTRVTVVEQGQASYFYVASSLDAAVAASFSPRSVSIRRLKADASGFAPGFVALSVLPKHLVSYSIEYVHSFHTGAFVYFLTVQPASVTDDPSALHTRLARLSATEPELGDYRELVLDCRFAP
Macrophage-stimulating protein receptor, sequence (Q04912 310-1400 limits assumed): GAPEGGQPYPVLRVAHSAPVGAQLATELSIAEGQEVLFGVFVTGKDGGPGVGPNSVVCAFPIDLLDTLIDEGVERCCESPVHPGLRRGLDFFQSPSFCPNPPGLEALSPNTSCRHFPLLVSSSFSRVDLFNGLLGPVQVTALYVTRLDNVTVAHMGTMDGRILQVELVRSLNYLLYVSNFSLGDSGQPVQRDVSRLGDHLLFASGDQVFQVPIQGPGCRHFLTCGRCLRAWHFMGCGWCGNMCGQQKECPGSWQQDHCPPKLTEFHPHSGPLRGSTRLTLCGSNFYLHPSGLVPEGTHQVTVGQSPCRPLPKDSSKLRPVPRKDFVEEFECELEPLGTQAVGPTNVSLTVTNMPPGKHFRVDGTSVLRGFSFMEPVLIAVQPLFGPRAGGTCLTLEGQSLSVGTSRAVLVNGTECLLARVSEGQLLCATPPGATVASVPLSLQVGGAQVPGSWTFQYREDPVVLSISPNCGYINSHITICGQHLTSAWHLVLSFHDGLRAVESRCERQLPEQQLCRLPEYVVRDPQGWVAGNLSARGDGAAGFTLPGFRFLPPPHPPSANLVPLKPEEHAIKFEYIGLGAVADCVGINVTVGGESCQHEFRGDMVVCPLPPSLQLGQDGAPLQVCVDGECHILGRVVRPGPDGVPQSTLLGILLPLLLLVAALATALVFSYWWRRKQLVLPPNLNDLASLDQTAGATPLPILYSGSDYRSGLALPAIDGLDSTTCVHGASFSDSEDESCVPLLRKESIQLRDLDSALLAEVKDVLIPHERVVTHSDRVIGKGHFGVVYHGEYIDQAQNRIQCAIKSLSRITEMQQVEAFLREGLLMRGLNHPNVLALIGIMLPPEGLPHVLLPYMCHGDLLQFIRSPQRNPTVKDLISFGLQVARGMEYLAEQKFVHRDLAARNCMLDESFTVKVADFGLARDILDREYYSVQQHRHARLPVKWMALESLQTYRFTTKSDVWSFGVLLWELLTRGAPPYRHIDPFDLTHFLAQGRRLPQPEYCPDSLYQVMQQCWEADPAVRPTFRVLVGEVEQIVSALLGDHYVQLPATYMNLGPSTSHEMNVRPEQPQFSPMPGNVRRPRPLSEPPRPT

| Kd [1] | Kd [2] | Kd [3] | Kd [5] | Kd [6] | Kd [7] | Kd [8] | Kd [9] | Kd [10] | Structure (SMILES) | Kd [4] |
| --- | --- | --- | --- | --- | --- | --- | --- | --- | --- | --- |
| > 30 µM (inactive) | > 30 µM (inactive) | > 30 µM (inactive) | > 30 µM (inactive) | > 30 µM (inactive) | > 30 µM (inactive) | > 30 µM (inactive) | > 30 µM (inactive) | > 30 µM (inactive) | CNC(=O)c1ccc(-c2cnc3ncc(Cc4ccc5ncccc5c4)n3n2)cc1F [CAPMATINIB] | > 30 µM (inactive) |
| > 30 µM (inactive) | > 30 µM (inactive) | 0.17 µM (active) | > 30 µM (inactive) | > 30 µM (inactive) | > 30 µM (inactive) | > 30 µM (inactive) | > 30 µM (inactive) | > 30 µM (inactive) | COc1cc(CCc2cc(NC(=O)c3ccc(N4C[C@@H](C)N[C@@H](C)C4)cc3)n[nH]2)cc(OC)c1 [AZD-4547] | > 30 µM (inactive) |
